Values of other authors as cited in paper PMC7395068, “The evolution of strategies to minimise the risk of human drug-induced liver injury (DILI) in drug discovery and development” (Archives of Toxicology, 2020).
Counter-ions that a name gives are not always drawn. Like-named read-outs stand apart in the source and are kept apart here. *1 amine or outer side, *2 acyl side, *3 side chain or, on linkers, in order; H or OH if unused. Where a SMILES comes first, the peptide text is derived from it. Bridges are numbered along the chain shown (N, C = ends). [ ]: non-standard residue; d: D form. The star is where a group is joined. pTerphenylCO(4''-OnC5H11) = CCCCCOc1ccc(-c2ccc(-c3ccc(C(=O)*)cc3)cc2)cc1; Orn(4R-OH,5R-OH) = O=C([C@H](C[C@@H](O)[C@@H](O)N[*:3])N[*:1])[*:2]; hTyr(3S-OH,4S-OH) = N[C@H](C(=O)O)[C@H](O)[C@@H](O)c1ccc(O)cc1; Pro(3S-OH,4S-Me) = C[C@H]1CN[C@H](C(=O)O)[C@H]1O; Hyp = O=C(O)[C@@H]1C[C@@H](O)CN1

Conditions: cited from earlier work
[1] = LTKB DILIrank category, ref Chen 2016
[2] = binary DILI call, ref Chen 2016

SMILES	DILI severity category [1]	DILI +VE (5-8), DILI -VE (-4) [2]	other results
OC[C@H]1O[C@@H](O[C@@H]2[C@@H](CO)OC(O)(CO)[C@H]2O)[C@H](O)[C@@H](O)[C@H]1O (mixture of isomers) [lactulose]	–	–	DILI +VE (5-8), DILI -VE (-4) (binary in vivo human DILI call, ref Chen 2016): -VE; DILI severity category (human DILI, LTKB DILIrank category, ref Chen 2016): vNo-DILI-Concern
CCCCC(C)(O)C/C=C/[C@H]1[C@H](O)CC(=O)[C@@H]1CCCCCCC(=O)OC (mixture of isomers) [misoprostol]	–	–	DILI +VE (5-8), DILI -VE (-4) (in vivo): -VE; DILI severity category (in vivo): Ambiguous DILI-concern
O=C(O)CCCc1ccccc1 [4-phenylbutyric acid]	Ambiguous DILI-concern	-VE	–
Nc1nc(=O)c2c([nH]1)NC[C@H](CNc1ccc(C(=O)N[C@@H](CCC(=O)O)C(=O)O)cc1)N2C=O [Levoleucovorin]	–	–	DILI +VE (5-8), DILI -VE (-4) (in vivo): -VE; DILI severity category (in vivo): vNo-DILI-Concern
CC(=O)NCCCS(=O)(=O)O [acamprosate]	–	–	DILI +VE (5-8), DILI -VE (-4) (in vivo): +VE; DILI severity category (in vivo): vLess-DILI-Concern
CCCC(=O)Nc1ccc(OCC(O)CNC(C)C)c(C(C)=O)c1 (centres unmarked) [acebutolol]	vLess-DILI-Concern	–	–
O=C(O)COC(=O)Cc1ccccc1Nc1c(Cl)cccc1Cl [aceclofenac]	–	–	DILI +VE (5-8), DILI -VE (-4) (in vivo): +VE; DILI severity category (in vivo): vLess-DILI-Concern
CC(=O)NO [acetohydroxamic acid]	–	–	DILI +VE (5-8), DILI -VE (-4) (in vivo): -VE; DILI severity category (in vivo): Ambiguous DILI-concern
Nc1ncnc2c1ncn2CCOCP(=O)(O)O [adefovir]	vLess-DILI-Concern	–	–
CC(N)C(=O)OC(C)(C)Cc1ccc(Cl)cc1 (centres unmarked) [alaproclate]	vMost-DILI-Concern	–	–
C[C@H](N)C(=O)N[C@@H](C)C(=O)N[C@H]1[C@@H]2CN(c3nc4c(cc3F)c(=O)c(C(=O)O)cn4-c3ccc(F)cc3F)C[C@@H]21 [alatrofloxacin mesylate]	vMost-DILI-Concern	–	–
C=CCOc1ccc(CC(=O)O)cc1Cl [alclofenac]	vMost-DILI-Concern	–	–
COc1cc2nc(N(C)CCCNC(=O)C3CCCO3)nc(N)c2cc1OC (centres unmarked) [alfuzosin]	vLess-DILI-Concern	–	–
CN(C)CCc1c[nH]c2ccc(CS(=O)(=O)N3CCCC3)cc12 [almotriptan]	vNo-DILI-Concern	-VE	–
Cc1nnc2n1-c1ccc(Cl)cc1C(c1ccccc1)=NC2 [alprazolam]	–	–	DILI +VE (5-8), DILI -VE (-4) (in vivo): +VE; DILI severity category (in vivo): vLess-DILI-Concern
C[C@H]1CN(C[C@H](Cc2ccccc2)C(=O)NCC(=O)O)CC[C@@]1(C)c1cccc(O)c1 [alvimopan]	vNo-DILI-Concern	-VE	–
CC[N+](CC)(CCNC(=O)C(=O)NCC[N+](CC)(CC)Cc1ccccc1Cl)Cc1ccccc1Cl [ambenonium]	–	–	DILI +VE (5-8), DILI -VE (-4) (in vivo): -VE; DILI severity category (in vivo): vNo-DILI-Concern
NCCCNCCSP(=O)(O)O [amifostine]	vNo-DILI-Concern	-VE	–
NCCCCCC(=O)O [aminocaproic acid]	vNo-DILI-Concern	-VE	–
Nc1ccc(C(=O)NCC(=O)O)cc1 [aminohippurate]	–	–	DILI +VE (5-8), DILI -VE (-4) (in vivo): -VE; DILI severity category (in vivo): vNo-DILI-Concern
CCOC(=O)C1=C(COCCN)NC(C)=C(C(=O)OC)C1c1ccccc1Cl (centres unmarked) [amlodipine]	–	–	DILI +VE (5-8), DILI -VE (-4) (in vivo): +VE; DILI severity category (in vivo): vLess-DILI-Concern

SMILES	DILI severity category [1]	DILI +VE (5-8), DILI -VE (-4) [2]	other results
CC(N)Cc1ccccc1 (centres unmarked) [amphetamine]	–	–	DILI +VE (5-8), DILI -VE (-4) (in vivo): +VE; DILI severity category (in vivo): vLess-DILI-Concern
CC(C)CN(C[C@@H](O)[C@H](Cc1ccccc1)NC(=O)O[C@H]1CCOC1)S(=O)(=O)c1ccc(N)cc1 [amprenavir]	Ambiguous DILI-concern	-VE	–
O=C1CN2Cc3c(ccc(Cl)c3Cl)N=C2N1 [anagrelide]	Ambiguous DILI-concern	-VE	–
CCCCCOc1ccc(-c2ccc(-c3ccc(C(=O)N[C@H]4C[C@@H](O)[C@@H](O)NC(=O)[C@@H]5[C@@H](O)[C@@H](C)CN5C(=O)[C@H]([C@@H](C)O)NC(=O)[C@H]([C@H](O)[C@@H](O)c5ccc(O)cc5)NC(=O)[C@@H]5C[C@@H](O)CN5C(=O)[C@H]([C@@H](C)O)NC4=O)cc3)cc2)cc1 [anidulafungin] ({pTerphenylCO(4''-OnC5H11)}-[Orn(4R-OH,5R-OH)]T[Hyp][hTyr(3S-OH,4S-OH)]T[Pro(3S-OH,4S-Me)]; lactam 1-C)	Ambiguous DILI-concern	-VE	–
CN1CCc2cccc3c2[C@H]1Cc1ccc(O)c(O)c1-3 [apomorphine]	vNo-DILI-Concern	-VE	–
NC(=O)C[S@@+]([O-])C(c1ccccc1)c1ccccc1 [armodafinil]	Ambiguous DILI-concern	-VE	–
CNCC[C@@H](Oc1ccccc1C)c1ccccc1 [atomoxetine]	vMost-DILI-Concern	–	–
O=C1C(O)=C([C@H]2CC[C@H](c3ccc(Cl)cc3)CC2)C(=O)c2ccccc21 [atovaquone]	Ambiguous DILI-concern	-VE	–
COc1ccc(CC2c3cc(OC)c(OC)cc3CC[N+]2(C)CCC(=O)OCCCCCOC(=O)CC[N+]2(C)CCc3cc(OC)c(OC)cc3C2Cc2ccc(OC)c(OC)c2)cc1OC (centres unmarked) [atracurium]	vNo-DILI-Concern	-VE	–
CC(=O)OC[C@H]1O[C@@H]([S-])[C@H](OC(C)=O)[C@@H](OC(C)=O)[C@@H]1OC(C)=O.CCP(CC)CC.[Au+] [auranofin]	vLess-DILI-Concern	–	–
Nc1ncn([C@@H]2O[C@H](CO)[C@@H](O)[C@H]2O)c(=O)n1 [azacitidine]	Ambiguous DILI-concern	-VE	–
O=C(O)CCNC(=O)c1ccc(/N=N/c2ccc(O)c(C(=O)O)c2)cc1 [balsalazide]	Ambiguous DILI-concern	-VE	–
Cn1c(CCCC(=O)O)nc2cc(N(CCCl)CCCl)ccc21 [bendamustine]	–	–	DILI +VE (5-8), DILI -VE (-4) (in vivo): -VE; DILI severity category (in vivo): vNo-DILI-Concern
O=C(O)COc1nn(Cc2ccccc2)c2ccccc12 [bendazac]	vMost-DILI-Concern	–	–
NS(=O)(=O)c1cc2c(cc1C(F)(F)F)NC(Cc1ccccc1)NS2(=O)=O (centres unmarked) [bendroflumethiazide]	vLess-DILI-Concern	–	–
CCCCNc1ccc(C(=O)OCCOCCOCCOCCOCCOCCOCCOCCOCCOC)cc1 [benzonatate]	vLess-DILI-Concern	–	–
C[C@@H](Cc1ccccc1)N(C)Cc1ccccc1 [benzphetamine]	–	–	DILI +VE (5-8), DILI -VE (-4) (in vivo): -VE; DILI severity category (in vivo): vNo-DILI-Concern
CC(C)NCC(O)COc1ccc(CCOCC2CC2)cc1 (centres unmarked) [betaxolol]	Ambiguous DILI-concern	-VE	–
CC(C[N+](C)(C)C)OC(N)=O (centres unmarked) [bethanechol]	vNo-DILI-Concern	-VE	–
CC(C)C[C@H](NC(=O)[C@H](Cc1ccccc1)NC(=O)c1cnccn1)B(O)O [bortezomib]	vMost-DILI-Concern	–	–
CC(C)C[C@H]1C(=O)N2CCC[C@H]2[C@]2(O)O[C@](NC(=O)[C@@H]3C=C4c5cccc6[nH]c(Br)c(c56)C[C@H]4N(C)C3)(C(C)C)C(=O)N12 [bromocriptine]	vLess-DILI-Concern	–	–
